Reference: patent publication US20230241098A1, “ANTIVIRAL PHARMACEUTICAL COMPOSITION” (priority 2020, published 2023)
Several values for one entry are separate records, joined by “and”; a condition that tells them apart may be missing. Identical values can stand only once. Like-named read-outs stand apart in the source and are kept apart here.

Columns and labels:
[1] = test system: RANTES; assay: RANTES release into basal medium (ELISA); format: cell-based, human
[2] = test system: HRV-B14; assay: Viral genome copy number (quantitative RT-PCR of apical washes) in HRV-B14-infected MucilAir nasal epithelia (Example 6); format: cell-based, human rhinovirus; conditions: for Mean Log 10 ((Copies/ml) + 1), viral genome copy number: 5 μM, positive antiviral control
[3] = test system: MucilAir nasal human 3D Epithelial model
[4] = test system: Interleukin 8 (IL-8); assay: Interleukin 8 release into basal medium (ELISA); format: cell-based, human
[5] = test system: HRV-A16; assay: Viral genome copy number (quantitative RT-PCR of apical washes) in HRV-A16-infected MucilAir nasal epithelia (Example 5); format: cell-based, human rhinovirus; conditions: twice daily apical, rupintrivir 5 μM basal
[6] = test system: MucilAir nasal human 3D Epithelial model; conditions: Examples 2 and 4 (RSV A experiments); all measured timepoints
[7] = test system: HRV-C15; assay: Viral genome copy number (quantitative RT-PCR of apical washes) in HRV-C15-infected MucilAir nasal epithelia (Examples 1 and 3); format: cell-based, human rhinovirus; conditions: for effect on RV-C15 replication (in words): rupintrivir basal, comparison of fucoidan sources
[8] = test system: MucilAir nasal human 3D Epithelial model; assay: Cilia beating frequency (CBF); format: cell-based; conditions: Example 4; day 4; once or twice daily; ribavirin basal
[9] = test system: MucilAir nasal human 3D Epithelial model; assay: Mucociliary clearance (MCC), bead velocity; format: cell-based; conditions: Example 4; day 4; once or twice daily; ribavirin basal
[10] = test system: respiratory syncytial virus A; format: cell-based; conditions: RSV A
[11] = Example 4, once or twice daily (25 μg Test UP: see once daily exception), ribavirin basal

Question: How did the “effect on virus-induced increase of RANTES release (in words)” value ([1]; Example 3, RV-C15, rupintrivir basal) turn out when CCOC(=O)/C=C/[C@H](C[C@@H]1CCNC1=O)NC(=O)[C@@H](CC(=O)[C@@H](NC(=O)c1cc(C)on1)C(C)C)Cc1ccc(F)cc1 [Rupintrivir] was run?
Answer: effectively prevented the virus-induced increase of RANTES release

Question: And the “Mean Log 10 ((Copies/ml) + 1), viral genome copy number” value ([2]; time 3.5 h)?
Answer: 0.00 Log 10 ((Copies/ml) + 1)

Question: And the “Mean Log 10 ((Copies/ml) + 1), viral genome copy number” value ([2]; time 24 h)?
Answer: 3.65 Log 10 ((Copies/ml) + 1)

Question: And the “Mean Log 10 ((Copies/ml) + 1), viral genome copy number” value ([2]; time 48 h)?
Answer: 4.23 Log 10 ((Copies/ml) + 1)

Question: What about the “Mean Log 10 ((Copies/ml) + 1), viral genome copy number” value ([2]; time 72 h) of the same compound?
Answer: 4.26 Log 10 ((Copies/ml) + 1)

Question: What about the “Mean Log 10 ((Copies/ml) + 1), viral genome copy number” value ([2]; time 96 h) of the same compound?
Answer: 0.00 Log 10 ((Copies/ml) + 1)

Question: What about the “detection of virus (in words)” value ([2]; RV-B14, Day 4) of the same compound?
Answer: no more virus was detected

Question: What about the “effect on HRV-C15 induced transient TEER decrease (in words)” value ([3]; Example 1, HRV-C15-inoculated inserts, apical or basal as in label) of the same compound?
Answer: prevented this transient TEER decrease

Question: And the “TEER of inoculated inserts” value ([3]; Example 3, HRV-C15-inoculated inserts)?
Answer: above 100 Ω·cm^2

Question: What about the “effect on RV-C15 induced IL-8 release (in words)” value ([4]; Example 1, HRV-C15-inoculated inserts, day 4 post infection) of the same compound?
Answer: prevented

Question: What about the “effect on RSV A induced IL-8 release (in words)” value ([4]; Example 2, RSV A-inoculated inserts, day 2 and day 4 as stated) of the same compound?
Answer: prevented

Question: What about the “Mean viral genome copy number” value ([5]; 3.5 hours post infection, 0.00 = below detection limit) of the same compound?
Answer: 0.00 Log 10 ((Copies/ml) + 1)

Question: What about the “Mean viral genome copy number” value ([5]; 24 hours post infection, 0.00 = below detection limit) of the same compound?
Answer: 0.00 Log 10 ((Copies/ml) + 1)

Question: What about the “Mean viral genome copy number” value ([5]; 48 hours post infection, 0.00 = below detection limit) of the same compound?
Answer: 4.70 Log 10 ((Copies/ml) + 1)

Question: And the “Mean viral genome copy number” value ([5]; 72 hours post infection, 0.00 = below detection limit)?
Answer: 5.30 Log 10 ((Copies/ml) + 1)

Question: And the “Mean viral genome copy number” value ([5]; 96 hours post infection)?
Answer: 3.77 Log 10 ((Copies/ml) + 1)

Question: What about the “cytotoxicity (LDH, Triton X-100 = 100%)” value [6] of the same compound?
Answer: below 5%

Question: And the “Mean viral genome copy number” value ([7]; Example 1, HRV-C15, 3.5 hours post infection, AP apical / BL basal as in label, rupintrivir 5 μM basal, 0.00 = below detection limit)?
Answer: 0.00 Log 10 ((Copies/ml) + 1)

Question: And the “Mean viral genome copy number” value ([7]; Example 1, HRV-C15, 24 hours post infection, AP apical / BL basal as in label, rupintrivir 5 μM basal, 0.00 = below detection limit)?
Answer: 5.57 Log 10 ((Copies/ml) + 1)

Question: What about the “Mean viral genome copy number” value ([7]; Example 1, HRV-C15, 48 hours post infection, AP apical / BL basal as in label, rupintrivir 5 μM basal) of the same compound?
Answer: 6.46 Log 10 ((Copies/ml) + 1)

Question: What about the “Mean viral genome copy number” value ([7]; Example 1, HRV-C15, 72 hours post infection, AP apical / BL basal as in label, rupintrivir 5 μM basal) of the same compound?
Answer: 6.69 Log 10 ((Copies/ml) + 1)

Question: And the “Mean viral genome copy number” value ([7]; Example 1, HRV-C15, 96 hours post infection, AP apical / BL basal as in label, rupintrivir 5 μM basal)?
Answer: 7.17 Log 10 ((Copies/ml) + 1)

Question: What about the “decrease of the viral load” value ([7]; Example 1, HRV-C15, rupintrivir 5 μM basal, on average) of the same compound?
Answer: two

Question: What about the “effect on RV-C15 replication (in words)” value ([7]; Example 3) of the same compound?
Answer: most effective inhibitor of RV-C15 replication

Question: What about the “effect on RV-C15 replication (in words)” value ([7]; Example 3, listed as rupintrivir) of the same compound?
Answer: significantly reduced viral genome copy number

Question: For “Polyethylene glycol tert-octyl phenyl ether [Triton X-100]”, which TEER ([3]; positive control for cytotoxicity, 10% (v/v) in normal saline, 50 μl apically, Examples 1 to 4) is on record?
Answer: below 100 Ω·cm^2

Question: For NC(=O)c1ncn([C@@H]2O[C@H](CO)[C@@H](O)[C@H]2O)n1 [Ribavirin, ribavirin], which “effect on RSV A-induced RANTES release (in words)” value [1, 11] is on record?
Answer: effectively prevented the virus-induced increase of RANTES release

Question: What about the “effect on RSV A induced cilia impairment (in words)” value [8] of the same compound?
Answer: prevented

Question: And the “TEER of inoculated inserts (in words)” value ([3]; Example 4, RSV A-inoculated inserts, once or twice daily, ribavirin basal)?
Answer: TEER values similar to that of the mock inserts

Question: What about the “effect on RSV A induced IL-8 release (in words)” value [4, 11] of the same compound?
Answer: prevented the RSV A induced IL-8 release

Question: What about the “effect on RSV A induced MCC reduction (in words)” value [9] of the same compound?
Answer: attenuated this RSV A induced MCC reduction

Question: And the “Mean viral genome copy number” value ([7]; Example 3, HRV-C15, 3.5 hours post infection, 1x (once daily apical), positive control basal, 0.00 = below detection limit)?
Answer: 0.00 Log 10 ((Copies/ml) + 1)

Question: And the “Mean viral genome copy number” value ([7]; Example 3, HRV-C15, 3.5 hours post infection, 2x (twice daily apical), positive control basal, 0.00 = below detection limit)?
Answer: 0.00 Log 10 ((Copies/ml) + 1)

Question: What about the “Mean viral genome copy number” value ([7]; Example 3, HRV-C15, 24 hours post infection, 1x (once daily apical), positive control basal) of the same compound?
Answer: 5.14 Log 10 ((Copies/ml) + 1)

Question: What about the “Mean viral genome copy number” value ([7]; Example 3, HRV-C15, 24 hours post infection, 2x (twice daily apical), positive control basal) of the same compound?
Answer: 5.14 Log 10 ((Copies/ml) + 1)

Question: What about the “Mean viral genome copy number” value ([7]; Example 3, HRV-C15, 48 hours post infection, 1x (once daily apical), positive control basal) of the same compound?
Answer: 7.63 Log 10 ((Copies/ml) + 1)

Question: What about the “Mean viral genome copy number” value ([7]; Example 3, HRV-C15, 48 hours post infection, 2x (twice daily apical), positive control basal) of the same compound?
Answer: 7.63 Log 10 ((Copies/ml) + 1)

Question: What about the “Mean viral genome copy number” value ([7]; Example 3, HRV-C15, 72 hours post infection, 1x (once daily apical), positive control basal) of the same compound?
Answer: 6.89 Log 10 ((Copies/ml) + 1)

Question: And the “Mean viral genome copy number” value ([7]; Example 3, HRV-C15, 72 hours post infection, 2x (twice daily apical), positive control basal)?
Answer: 6.89 Log 10 ((Copies/ml) + 1)

Question: And the “Mean viral genome copy number” value ([7]; Example 3, HRV-C15, 96 hours post infection, 1x (once daily apical), positive control basal)?
Answer: 6.24 Log 10 ((Copies/ml) + 1)

Question: What about the “Mean viral genome copy number” value ([7]; Example 3, HRV-C15, 96 hours post infection, 2x (twice daily apical), positive control basal) of the same compound?
Answer: 6.24 Log 10 ((Copies/ml) + 1)

Question: What about the “Mean viral genome copy number” value ([10]; Example 2, 3.5 hours post infection, AP apical / BL basal as in label, ribavirin 100 uM basal, 0.00 = below detection limit) of the same compound?
Answer: 5.63 Log 10 ((Copies/ml) + 1) and 3.52 Log 10 ((Copies/ml) + 1)

Question: And the “Mean viral genome copy number” value ([10]; Example 2, 24 hours post infection, AP apical / BL basal as in label, ribavirin 100 uM basal, 0.00 = below detection limit)?
Answer: 6.48 Log 10 ((Copies/ml) + 1) and 10.22 Log 10 ((Copies/ml) + 1)

Question: And the “Mean viral genome copy number” value ([10]; Example 2, 48 hours post infection, AP apical / BL basal as in label, ribavirin 100 uM basal)?
Answer: 7.07 Log 10 ((Copies/ml) + 1) and 11.46 Log 10 ((Copies/ml) + 1)

Question: What about the “Mean viral genome copy number” value ([10]; Example 2, 72 hours post infection, AP apical / BL basal as in label, ribavirin 100 uM basal) of the same compound?
Answer: 7.78 Log 10 ((Copies/ml) + 1) and 10.33 Log 10 ((Copies/ml) + 1)

Question: What about the “Mean viral genome copy number” value ([10]; Example 2, 96 hours post infection, AP apical / BL basal as in label, ribavirin 100 uM basal) of the same compound?
Answer: 8.32 Log 10 ((Copies/ml) + 1) and 9.09 Log 10 ((Copies/ml) + 1)

Question: What about the “decrease of the viral load” value ([10]; Example 2, ribavirin 100 μM basal) of the same compound?
Answer: 3 logs

Question: And the “Mean viral genome copy number” value ([10]; Example 4, 3.5 hours post infection, first block of Table 12, 1x (once daily apical), ribavirin 100 μM basal)?
Answer: 6.76 Log 10 ((Copies/ml) + 1)

Question: And the “Mean viral genome copy number” value ([10]; Example 4, 3.5 hours post infection, second block of Table 12, head prints 1x, ribavirin 100 μM basal)?
Answer: 6.76 Log 10 ((Copies/ml) + 1)

Question: And the “Mean viral genome copy number” value ([10]; Example 4, 24 hours post infection, first block of Table 12, 1x (once daily apical), ribavirin 100 μM basal)?
Answer: 7.06 Log 10 ((Copies/ml) + 1)

Question: What about the “Mean viral genome copy number” value ([10]; Example 4, 24 hours post infection, second block of Table 12, head prints 1x, ribavirin 100 μM basal) of the same compound?
Answer: 7.06 Log 10 ((Copies/ml) + 1)

Question: What about the “Mean viral genome copy number” value ([10]; Example 4, 48 hours post infection, first block of Table 12, 1x (once daily apical), ribavirin 100 μM basal) of the same compound?
Answer: 6.79 Log 10 ((Copies/ml) + 1)

Question: And the “Mean viral genome copy number” value ([10]; Example 4, 48 hours post infection, second block of Table 12, head prints 1x, ribavirin 100 μM basal)?
Answer: 6.79 Log 10 ((Copies/ml) + 1)

Question: And the “Mean viral genome copy number” value ([10]; Example 4, 72 hours post infection, first block of Table 12, 1x (once daily apical), ribavirin 100 μM basal)?
Answer: 7.40 Log 10 ((Copies/ml) + 1)

Question: What about the “Mean viral genome copy number” value ([10]; Example 4, 72 hours post infection, second block of Table 12, head prints 1x, ribavirin 100 μM basal) of the same compound?
Answer: 7.40 Log 10 ((Copies/ml) + 1)

Question: What about the “Mean viral genome copy number” value ([10]; Example 4, 96 hours post infection, first block of Table 12, 1x (once daily apical), ribavirin 100 μM basal) of the same compound?
Answer: 8.89 Log 10 ((Copies/ml) + 1)

Question: And the “Mean viral genome copy number” value ([10]; Example 4, 96 hours post infection, second block of Table 12, head prints 1x, ribavirin 100 μM basal)?
Answer: 8.89 Log 10 ((Copies/ml) + 1)
